SMILES strings stand for the structures.

A word on the bioavailability: it is dose-corrected exposure relative to a reference, in per cent. A high value points to good availability. What is called Tmax is the time at which the peak concentration occurs. Usually Cmax stands for the maximum level reached in the sampled fluid or tissue.

Type in all cases: ADME, organism-based
What all share (conditions): in vivo

In data set [1] the test system is Rattus norvegicus. The experiment in a line: Volume of distribution in Sprague-Dawley rat at 2 mg/kg, iv and po. On the set-up: dose 2 mg/kg, route oral.
A short description of data set [2]: Bioavailability in Sprague-Dawley rat at 2 mg/kg, iv and po.
Data set [3] in a line: Tmax in Sprague-Dawley rat at 2 mg/kg, iv and po. On the set-up: dose 2 mg/kg, route oral.
Data set [4] in a line: Cmax in Sprague-Dawley rat at 2 mg/kg, iv and po. Further details: dose 2 mg/kg, route oral.

`CN1Cc2cc(Cl)ccc2-n2c(nnc2C2CCN(c3ccccn3)CC2)C1`: the Vd in data set [1] stood at 2.7 L/kg. The same molecule came in with a bioavailability in data set [2] of 34%. The Tmax in data set [3] came to 48 min. In data set [4], this molecule registered a Cmax of 97 ng/mL.

Values taken from ChEMBL document CHEMBL1833912, “Discovery of PF-184563, a potent and selective V1a antagonist for the treatment of dysmenorrhoea. The influence of compound flexibility on microsomal stability” (Bioorg Med Chem Lett, 2011).
